The test system of one data set is CCND2 promoter. As to the kind of experiment: CCND2 promoter-luciferase transactivation assay in NIH3T3 cells with or without c-maf. In kind it is cell-based, mouse. The method, then:
Using this assay, Lopac (n=1280), Prestwick (n=1120), and Spectrum (n=2000) libraries of drugs and natural compounds were screened. In a parallel MTS assay, the effect of each compound on 3T3 viability was determined, allowing exclusion of compounds that caused secondary suppression of CCND2 due to non-specific cytotoxicity. […] These included monensin, patulin, β-lapachone, camptothecin, dihydrogambogic acid, gentian violet, thapsigargin, brefeldin A, pristimerin, and kinetin riboside.
Full-length c-maf cDNA was subcloned into an IRES-GFP MIEV retroviral vector and introduced into NIH3T3 cells by infection. Stable clones expressing GFP and c-maf were selected by flow cytometry and immunoblotting, respectively. The promoter of human cyclin D2 (−894 to −4; Brooks et al., J. Biol. Chem., 271, 9090-9 (1996)), containing c-maf responsive element sequence (MARE), was cloned from DNA from HeLa cells and inserted into the pGLbasic firefly luciferase vector (Promega, Madison, Wis.) immediately upstream of the luciferase gene. This construct was co-transfected with pcDNA3 (containing a neomycin resistance gene) into both NIH3T3 wild type cells and NIH3T3 cells stably over-expressing c-maf-IRES-GFP. Cells stably expressing c-maf, GFP, and luciferase were selected.
(§1) NIH3T3 cells stably expressing c-maf and the CCND2 promoter driving luciferase (13,000 cells per well) were plated in 96-well plates by a Biomek FX liquid handler (Beckman, Fullerton, Calif.). After the cells had adhered, they were treated with aliquots of molecules from LOPAC (Sigma, St. Louis, Mo.), Prestwick (Prestwick Chemical Inc, Illkirch, France) or Spectrum (Microsource Discovery Systems, Gaylordsville, Conn.) libraries of off-patent drugs and chemicals at a final concentration of ˜5 μM and <0.1% DMSO. Cells were incubated with compounds at 37° C. for 16 hours.
Luciferase assay. Luciferase activity was assessed according to the manufacturer's instructions (Promega, Madison, Wis.). Briefly, the cell culture medium was removed using an EMBLA plate washer (Molecular Devices, X) and Glo Lysis buffer (Promega) was added by robot. After a 10-minute incubation, an equal volume of Bright-Glo Luciferase substrate (Promega) was added, and luminescence signal was detected with a 96-well Luminoskan luminescence plate reader (Thermo Labsystem, Waltham, Mass.) using a 5 second integration.
Studies of kinetin riboside using 3T3-D2-luc cells. To examine CCND2 suppression induced by kinetin riboside, the reporter cells were exposed to kinetin riboside in combination with other drugs (all purchased from Sigma, St. Loius, Mo.) that influence CCND2 transcription or inhibit nucleoside transport or phosphorylation. NIH3T3 cells expressing the CCND2 promoter driving luciferase were incubated with kinetin riboside or vehicle control +/− forskolin, 4-(3-butoxy-4-methoxybenzyl)imidazolidin-2-one (BMBI), cantharadin, S-(4-Nitrobenzyl)-6-thioinosine (NBTI), or A-134974, as specified at 5 μM concentration for 16 hours at 37° C. […] Forskolin is a cell-permeable diterpenoid that activates adenylate cyclase resulting in increased cAMP concentration. BMBI (Sigma B8279) is an inhibitor of cAMP phosphodiesterase that also causes accumulation of cAMP. Cantharadin (C7632) is an inhibitor of protein phosphatase 2A and, from the library screen, mediates induction of CCND2. NBTI (Sigma N2255) is a potent adenosine uptake inhibitor, and A-134974 (Sigma A2846) is a selective inhibitor of adenosine kinase.
(§2) In an optimized automated assay, NIH3T3 cells over-expressing c-maf and the human cyclin D2 promoter driving luc were plated in 96-well plates by robot and following adhesion were treated for 16 hours with compounds at a final concentration of ˜5 μM and <0.1% DMSO. As a control, cells were treated with buffer alone. […] Thus, each compound from the library was tested in at least two assays—luciferase for CCND2 activity and MTS for viability. The coefficient of variance (CV) of the assay was <10%.

A further data set has as its system NIH3T3 cells. The class given is cell-based, mouse. Particulars: MTS. The method, then:
as §1
(§3) Viability assay. The effects of screened compounds on cell viability was assessed by 3-(4,5-dimethyl[…])-5-(3-carboxymethoxyphenyl)-2-(4-sulfophenyl)-2-H-tetrazolium (MTS) assay according to the manufacture's instructions (Progmega, Madison, Wis.). MTS reagent (20 μL/well in 96 well plates) was added to cells, and these were then incubated at 37° C. for 4 hours. Absorbance at 490 nm was determined using a 96-well plate reader.
as §2

In data set [1] the test system is cyclin D1, cyclin D2, cyclin D3. As to the kind of experiment: Immunoblot of cyclin D proteins in HMCL. Particulars: A-134974 2 μM, kinetin riboside 10 μM. In kind it is cell-based, human. The method, then: (§4) Immunoblotting. Cytosolic extracts were prepared from HMCL or purified patient CD138^+ myeloma cells following exposure to kinetin riboside. Cells were washed with cold PBS, resuspended in cold RIPA buffer (5×10^6 cells/100 μL) containing fresh protease and phosphatase inhibitors (Santa Cruz Biotechnology, Santa Cruz, Calif.) and incubated on ice for 30 minutes with gentle mixing. The supernatant was repossessed following high speed centrifugation, and protein concentrations were determined by the Bradford assay. Immunoblot assays were performed as described elsewhere (Krajewski et al., Anal. Biochem., 236:221-228 (1996)). Briefly, equal amounts of protein were separated by SDS-PAGE and transferred to a PVDF nitrocellulose membrane using a semi-dry apparatus. Membranes were blocked using 5% skim milk in Tris buffered saline and probed with monoclonal mouse anti-cyclin D1 (DCS-6, Biosource, Camarillo, Calif.), polyclonal rabbit anti-cyclin D2 (#2924, Cell Signalling Technology), monoclonal mouse anti-cyclin D3 (DCS-22, BioSource), polyclonal rabbit anti-c-Maf (M-153, Santa Cruz), polyclonal rabbit anti-Cleaved Caspase 9 (Asp315) (Cell Signaling Technology), monoclonal mouse anti-β-actin (Cell Signaling Technology) and/or monoclonal anti-a-tubulin (B-7)(Santa Cruz Biotechnology, Santa Cruz, Calif.). Membrane proteins were visualized using HRP-conjugated species-specific secondary antibodies (Cell Signaling Technology) and enhanced chemiluminescence (Pierce, Rockford, Ill.).

The test system of another data set is caspase 9. As to the kind of experiment: Immunoblot of caspase 9 cleavage in HMCL. Particulars: A-134974 2 μM, kinetin riboside 10 μM. The class given is cell-based, human. As to the method: as §4, with “Membrane proteins were visualized using HRP-conjugated species-specific secondary antibodies (Cell Signaling Technology) and enhanced chemiluminescence (Pierce, Rockford, Ill.).” left out
(In general: A western blot detects proteins with antibodies after separation by electrophoresis.)

Another data set relates to RSV promoter. The data set can be described thus: Luciferase driven by RSV promoter in NIH3T3 cells (specificity control). The class given is cell-based. An excerpt: Exclusion of non-specific or toxic assay ‘hits.’ Drugs that decreased luciferase activity without affecting viability may cause reduced transactivation of the cyclin D2 promoter, or may act non-specifically on the activity of the luciferase enzyme. To distinguish between these two possibilities, hits were re-tested against NIH3T3 cells that over-expressed luciferase driven by an RSV promoter. […] Therefore, these drugs were excluded from further analysis.

Data set [2] relates to human myeloma cell lines (HMCL). As to the kind of experiment: HMCL viability / cytotoxicity (MTT, MTS). The class given is cell-based. The method, then:
Subsequent validation studies using selected compounds in human myeloma cell lines (HMCL) confirmed successful suppression of both cyclin D2 and D1 polypeptides. Each of these compounds was then shown to be cytotoxic to a genetically diverse and standardized panel of 14 HMCL in MTT assays: monensin (10-760 nM), camptothecin (5-700 nM), dihydrogambogic acid (250-800 nM), pristimerin (150-500 nM), and kinetin riboside (2.5-20 μM). Cell cycle analysis confirmed induction of G0/G1 phase arrest for most compounds, consistent with cyclin D inhibition.
as §3

In data set [3] the test system is CD138− hematopoietic cells. As to the kind of experiment: Unsorted myeloma patient bone marrow, flow cytometry: CD138- non-malignant cells. The class given is cell-based. Particulars: patient bone marrow, 48 hours. As to the method: Flow cytometry. HMCL were treated as indicated and then washed in cold phosphate-buffered saline (PBS) and resuspended in buffer containing AnnexinV-FITC and propidium iodide (BD Biosciences, San Jose, Calif.) for 15 minutes at room temperature. Cells (10^5) were subsequently diluted and analyzed immediately by flow cytometry (FACScan, BD Biosciences, San Jose, Calif.) using CellQuest software. Patient bone marrow specimens were prepared and analyzed in a similar fashion using AnnexinV-FITC and anti-CD138-PE (BD Biosciences, San Jose, Calif.).
As mouse embryos that lack any D-cyclins eventually die from hematopoietic failure (Kozar et al., Cell, 118, 477-91 (2004)), the bone marrow might be predicted to be one of the most sensitive non-malignant tissue to be affected by drugs targeting cyclin D expression. Unsorted bone marrow samples from myeloma patients were treated with kinetin riboside to assess the relative cytotoxicity of this drug on malignant versus non-malignant marrow cells. Bone marrow samples were first processed to remove non-nucleated red cells and were then treated for 48 hours with kinetin riboside (5 μM).
Background: In flow cytometry, cells or beads pass a laser one at a time.

The nature of data set [4]: Pristimerin toxicity studies in mice. The class given is in vivo. The following applies: i.p. daily. The method, then:
While pristimerin is cytotoxic to HMCL and patient myeloma cells at 0.1-0.15 mg/L, toxicity studies in vivo indicate that the drug is tolerated in mice at 2.5 mg/kg i.p. daily.

“Also recorded” adds a separate entry of the source.

Take `Nc1ncnc2c1c(I)cn2[C@@H]1C[C@H](N)[C@@H](O)[C@H]1O` [A-134974]: in the data set with CCND2 promoter (NIH3T3 reporter cells, 5 μM, 16 hours), the “effect on CCND2-luc expression, agent alone” value is reported as “minimal enhancement”. Besides, the “effect on kinetin riboside-induced suppression of CCND2” value in the data set on CCND2 promoter (NIH3T3 reporter cells, with kinetin riboside) is recorded as “completely inhibits”. The “effect on NIH3T3 viability” value in the data set on NIH3T3 cells is reported as “no effect on 3T3 cell viability”. Also, the “effect on cyclin D1 and D2 levels in kinetin riboside-treated HMCL” value in data set [1] is on record as “partially rescues”. The “effect on kinetin riboside-induced caspase 9 cleavage in HMCL” value with caspase 9 was “prevents”.
As to `O=C1C=C2C(=CCOC2O)O1` (stereo not shown) [patulin], the “identified as putative inhibitor of CCND2 transactivation (screen hit)” value in the data set on CCND2 promoter (~5 μM, 16 hours, hit = 50% or more reduction in luciferase relative to cell viability) is on record as “putative CCND2 inhibitors; also recorded: putative suppressors of CCND2”. For the same compound, in the data set with NIH3T3 cells, the “effect on NIH3T3 viability” value was “excess NIH3T3 cytoxicity”. The “effect on luciferase driven by RSV promoter” value in the data set on RSV promoter is “non-specifically reduce luciferase activity”.
As for `COC(=O)[C@]1(C)CC[C@]2(C)CC[C@]3(C)C4=CC=C5C(=CC(=O)C(O)=C5C)[C@]4(C)CC[C@@]3(C)[C@@H]2C1` [pristimerin], in the data set on NIH3T3 cells, the “effect on NIH3T3 viability” value is reported as “relatively minor effects”. Moreover, the cytotoxic concentration in data set [2] (HMCL and patient myeloma cells) lay within 0.1 to 0.15 mg/L. In data set [2] (MTT assays, 14 HMCL), the “cytotoxic concentration across panel of 14 HMCL” value is 150 to 500 nM. Moreover, the “toxicity in CD138− bone marrow progenitor compartment” value in data set [3] is reported as “only modest toxicity”. Also, in data set [4], the “dose tolerated in mice” value came to 2.5 mg/kg.

Source of the values: patent US8822440B2, “Inhibiting cyclin D polypeptides” (Mayo Foundation for Medical Education and Research, priority 2006, dated 2014).
